39 molecules from ChEMBL document CHEMBL4483862, “Open-source discovery of chemical leads for next-generation chemoprotective antimalarials” (2018) can be followed below.

This assay has as its system Plasmodium berghei. In words: Luciferase/luciferin-expressing antifolate-resistant parasites were used to infect a culture of HepG2 cells that were pre-incubated with compounds. Infected hepatocytes emit light due to the luciferase reaction. Assay results are presented as the percent inhibition of light emission compared to control. […]. Format: functional. The following applies: sporozoite; for IC90: read-out: LUCIFERASE INFECTION ASSAY - IC90.

[1] abbreviates: read-out: LUCIFERASE INFECTION ASSAY - IC50.

Molecules are shown by their SMILES. pIC50: −log10 of the molar value.

Broadly, the pIC50 is the IC50 on a negative log10 scale, so that one unit is a factor of ten. Broadly, the IC90 is the point of the concentration-response curve where the effect stands at 90%. Consider `Cc1noc2nc(C3CC3)cc(C(=O)Oc3ccc(N4CCCC4=O)cc3)c12`, for which the concentration for an effect of 90% (IC90) is greater than 10 µM. Further, the pIC50 under setting [1] is less than 5.00.
The matching figures for `Cc1ccccc1CN1CCN2C=C(C(=O)Nc3ccc(Oc4ccccc4)cc3)OC2=NC1=O`: greater than 10 µM and less than 5.00.
In the case of `CSc1[nH]nc(-c2cc(C(C)(C)C)oc2C)c1C#N`, the IC90 is greater than 12 µM. The negative logarithm of the IC50 (pIC50) (PBLUC_HILL_SLOPE 2.91, PBLUC_R_SQUARED 0.01, read-out: LUCIFERASE INFECTION ASSAY - IC50) was 5.06.
Take `CC1(c2ccccc2)NC(=O)N(NC(=O)c2ccc(-c3ccccc3)cc2)C1=O` (stereo not drawn): the IC90 is greater than 10 µM. Besides, the pIC50 (PBLUC_HILL_SLOPE 2.29, PBLUC_R_SQUARED 0.368, read-out: LUCIFERASE INFECTION ASSAY - IC50) was 5.16.
As for `O=C1CCCC2=C1C(c1ccccc1)C=C1c3cc4c(cc3CCN12)OCCCO4` (stereo not drawn), the IC90 is greater than 8.26 µM. In addition, under setting [1], the pIC50 is less than 5.08.
Regarding `CCOC(=O)C1=C(Nc2ccc(OS(=O)(=O)c3ccc(Cl)cc3)cc2)C(=O)N(C(C)(C)C)C1`, the IC90 was greater than 6.69 µM. Further, under setting [1], the negative-log IC50 (pIC50) was less than 5.17.
In the case of `CCN(c1ccccc1)S(=O)(=O)c1cc(NC(=O)CNCc2ccco2)ccc1Cl`, the IC90 was greater than 10 µM. Besides, the pIC50 under setting [1] was less than 5.00.
For `CCNc1nnc(SCC(=O)N2CCNC2=O)s1`, in that order: greater than 10 µM and less than 5.00.
For `Oc1cc(C(F)(F)F)nc2c(C(F)(F)F)cccc12`, the IC90 was 5.16 µM. The pIC50 (FFLUC_HILL_SLOPE 0.264, FFLUC_R_SQUARED 0.18, PBLUC_HILL_SLOPE 9.49, PBLUC_R_SQUARED 0.416, read-out: LUCIFERASE INFECTION ASSAY - IC50) was 5.39.
On to `Cc1nn(CC(=O)NCCCN2c3ccccc3Sc3ccccc32)c(C)c1[N+](=O)[O-]`, for which the IC90 is greater than 10 µM. For the same molecule, under setting [1], the pIC50 is less than 5.00.
As for `COC(=O)c1sccc1Oc1ccc(C(F)(F)F)cc1NS(=O)(=O)c1cc(C(F)(F)F)cc(C(F)(F)F)c1`, the IC90 stood at 3.04 µM. The pIC50 (HEPG2TOX_HILL_SLOPE 17.5, HEPG2TOX_R_SQUARED 0.823, PBLUC_HILL_SLOPE 4.85, PBLUC_R_SQUARED 0.307, read-out: LUCIFERASE INFECTION ASSAY - IC50) was 5.71.
On to `C(=C(c1nc2ccccc2s1)c1nc2ccccc2s1)c1cccnc1`, for which the IC90 turned out to be 9.07 µM. For the setting “HEPG2TOX_HILL_SLOPE 18.8, HEPG2TOX_R_SQUARED 0.503, PBLUC_HILL_SLOPE 12.3, 18.3, PBLUC_R_SQUARED 0.0559, 0.217, read-out: LUCIFERASE INFECTION ASSAY - IC50”, the pIC50 is 5.11.
In the case of `CC(C)C1NC(=O)N(CCCOc2ccc(C(C)(C)C)cc2)C1=O` (stereo not drawn), the 90% effect concentration (IC90) was greater than 10 µM. The pIC50 under setting [1] was 5.02.
The matching figures for `Cc1csc(Sc2ncnc3c2cnn3C)n1`: greater than 2 µM and less than 5.70.
Consider `CC(C)(C)c1cnc(CSc2nc3ccc(Cl)cc3[nH]2)o1`, for which the IC90 is greater than 10 µM. Besides, the pIC50 (HEPG2TOX_HILL_SLOPE 0.519, HEPG2TOX_R_SQUARED 0.541, PBLUC_HILL_SLOPE 2.57, PBLUC_R_SQUARED 0.344, read-out: LUCIFERASE INFECTION ASSAY - IC50) is 5.29.
For the molecule `COc1cccc(C(=O)Nc2nc3ccccc3[nH]2)c1`, the IC90 was greater than 10 µM. Further, the pIC50 under setting [1] is less than 5.00.
Consider `CC1CCCN(C(=O)COc2ccc(-c3nc4ccccc4s3)cc2)C1` (stereo not drawn), for which the IC90 was greater than 10 µM. The pIC50 (HEPG2TOX_HILL_SLOPE 6.02, HEPG2TOX_R_SQUARED 0.809, PBLUC_HILL_SLOPE 2.74, PBLUC_R_SQUARED 0.285, read-out: LUCIFERASE INFECTION ASSAY - IC50) is 5.19.
As to `CC(NC(=O)NCc1ccccc1)c1ccc2ccccc2c1` (stereo not drawn), the IC90 was greater than 10 µM. In addition, under setting [1], the pIC50 is less than 5.00.
As for `Cc1cc(C)cc(-n2c(C)cc(C(=O)CNC(=O)NCc3ccccc3)c2C)c1`, the IC90 came to 3.27 µM. The pIC50 (HEPG2TOX_HILL_SLOPE 1.59, HEPG2TOX_R_SQUARED 0.958, PBLUC_HILL_SLOPE 2.43, PBLUC_R_SQUARED 0.455, read-out: LUCIFERASE INFECTION ASSAY - IC50) is 5.88.
On to `CCCn1c(SCC2=C(C(=O)OCC)C(C)NC(=O)N2)nc2sc3c(c2c1=O)CCC(C(C)(C)CC)C3` (stereo not drawn), for which the concentration for an effect of 90% (IC90) is greater than 10 µM. In addition, under setting [1], the pIC50 is less than 5.00.
Regarding `Cc1cc(C(=O)Nc2ccc(OCc3ncc(C(F)(F)F)cc3Cl)cc2)no1`, the IC90 was determined as 1.33 µM. Besides, the pIC50 (PBLUC_HILL_SLOPE 1.94, PBLUC_R_SQUARED 0.889, read-out: LUCIFERASE INFECTION ASSAY - IC50) is 6.37.
For `CC(C)(C)c1ccc(-c2cnc3cnc(-c4cccnc4)cn23)cc1`, the IC90 was found to be 5.11 µM. Further, the pIC50 (PBLUC_HILL_SLOPE 7.55, PBLUC_R_SQUARED 0.755, read-out: LUCIFERASE INFECTION ASSAY - IC50) was 5.42.
For the molecule `Cc1ccc(N(Cc2ccccc2)S(=O)(=O)c2ccc(S(C)(=O)=O)cc2)cc1`, the IC90 was greater than 10 µM. Moreover, the pIC50 (PBLUC_HILL_SLOPE 2.12, PBLUC_R_SQUARED 0.413, read-out: LUCIFERASE INFECTION ASSAY - IC50) was 5.24.
`Cc1c(C)n(CCCO)c2ncn3nc(-c4cccs4)nc3c12`: the IC90 is greater than 10.1 µM. For the setting “PBLUC_HILL_SLOPE 0.662, PBLUC_R_SQUARED 0.606, read-out: LUCIFERASE INFECTION ASSAY - IC50”, the pIC50 is 5.35.
Take `Cc1nnc(Oc2ccc(C#N)cc2Cl)c2ccccc12`: the IC90 is greater than 10 µM. Also, the negative-log IC50 (pIC50) (HEPG2TOX_HILL_SLOPE 10.4, HEPG2TOX_R_SQUARED 0.426, read-out: LUCIFERASE INFECTION ASSAY - IC50) was less than 5.00.
As to `Cc1cc(C(C)(C)C)cc(C)c1CCNC(=O)C1CCN(c2cnccn2)CC1`, the IC90 is greater than 10 µM. Besides, the pIC50 (HEPG2TOX_HILL_SLOPE 9.49, HEPG2TOX_R_SQUARED 0.929, PBLUC_HILL_SLOPE 9.04, PBLUC_R_SQUARED 0.464, read-out: LUCIFERASE INFECTION ASSAY - IC50) is 5.05.
As to `COc1ccc(OC)c(S(=O)(=O)N2[C@@H]3CC[C@@H](C3)[C@H]2c2nc3cccc(OCc4ccccc4)c3[nH]2)c1`, the IC90 is greater than 10 µM. Besides, the pIC50 (PBLUC_HILL_SLOPE 10.6, PBLUC_R_SQUARED 0.0638, read-out: LUCIFERASE INFECTION ASSAY - IC50) is less than 5.00.
Regarding `Cc1[nH]c2ccc(C(=O)OC(C)C(=O)NCc3ccccc3)cc2c1C` (stereo not drawn), the IC90 turned out to be 8.96 µM. Moreover, the pIC50 under setting [1] is 5.45.
For `O=C(NNC1c2ccccc2-c2ccccc21)c1ccccc1`, in that order: greater than 10 µM and 5.07.
The matching figures for `CC(C)CN(CC(C)C)CC(O)COc1ccccc1` (stereo not drawn): greater than 11.8 µM and less than 4.93.
In the case of `CN1C(=O)N(Cc2ccc3ccccc3c2)C(=O)C12CCN(Cc1cnn(-c3ccc(F)cc3)c1)CC2`, the IC90 turned out to be 2.54 µM. For the same molecule, the pIC50 (HEPG2TOX_HILL_SLOPE 1.74, HEPG2TOX_R_SQUARED 0.906, PBLUC_HILL_SLOPE 10.4, PBLUC_R_SQUARED 0.489, read-out: LUCIFERASE INFECTION ASSAY - IC50) was 5.69.
As to `Cc1cc2ccccn2c1C(=O)c1cccc2nc3ccccc3nc12`, the IC90 was greater than 10 µM. Moreover, the pIC50 (PBLUC_HILL_SLOPE 2.29, PBLUC_R_SQUARED 0.419, read-out: LUCIFERASE INFECTION ASSAY - IC50) was 5.14.
For the molecule `Cc1ccc2nc(NC(=O)c3ccc(C#N)cc3)c(C(=O)NC3CCCCC3)n2c1`, the IC90 was greater than 8.22 µM. The pIC50 (HEPG2TOX_HILL_SLOPE 2.19, HEPG2TOX_R_SQUARED 0.834, PBLUC_HILL_SLOPE 2.97, PBLUC_R_SQUARED 0.239, read-out: LUCIFERASE INFECTION ASSAY - IC50) is 5.31.
For the molecule `CNC(=O)c1ccc(CN(C2CC2)S(=O)(=O)c2cc(C)ccc2C)cc1`, the IC90 was 5.44 µM. Further, the pIC50 (HEPG2TOX_HILL_SLOPE 1.06, HEPG2TOX_R_SQUARED 0.677, PBLUC_HILL_SLOPE 1.71, PBLUC_R_SQUARED 0.782, read-out: LUCIFERASE INFECTION ASSAY - IC50) was 5.82.
On to `CCOC(=O)c1ccc(N2C(=O)c3ccccc3C(C=NNC(=O)c3ccoc3C)C2=O)c(Cl)c1` (stereo not drawn), for which the IC90 was greater than 10 µM. Further, where the note is “HEPG2TOX_HILL_SLOPE 6.47, HEPG2TOX_R_SQUARED 0.622, PBLUC_HILL_SLOPE 28.4, PBLUC_R_SQUARED 0.423, read-out: LUCIFERASE INFECTION ASSAY - IC50”, the negative-log IC50 (pIC50) is 5.01.
As to `O=C1C(=O)N(Cc2ccco2)C(=O)N1Cc1ccc(-c2ccccc2)cc1`, the IC90 was greater than 10 µM. In addition, the pIC50 (HEPG2TOX_HILL_SLOPE 17.7, HEPG2TOX_R_SQUARED 0.836, PBLUC_HILL_SLOPE 2.05, PBLUC_R_SQUARED 0.957, read-out: LUCIFERASE INFECTION ASSAY - IC50) is 5.38.
`Cc1cc(O)cc2c1C(=O)/C(=C/c1ccc(Cl)cc1)O2`: the IC90 is 8.29 µM. In addition, for the setting “HEPG2TOX_HILL_SLOPE 11.8, HEPG2TOX_R_SQUARED 0.8, PBLUC_HILL_SLOPE 6.24, PBLUC_R_SQUARED 0.404, read-out: LUCIFERASE INFECTION ASSAY - IC50”, the pIC50 is 5.23.
Take `Cc1ccc(-c2noc(CN3CCN(c4cc(C)nc(N)n4)CC3)n2)cc1`: the IC90 was greater than 10 µM. The pIC50 (HEPG2TOX_HILL_SLOPE 1.35, HEPG2TOX_R_SQUARED 0.853, PBLUC_HILL_SLOPE 1.09, PBLUC_R_SQUARED 0.613, read-out: LUCIFERASE INFECTION ASSAY - IC50) was 5.84.
As for `CCN1CCN(c2ccc(NC(=O)c3csc(COc4ccc(F)cc4)n3)c(C)c2)CC1`, the 90% effect concentration (IC90) amounted to 4.43 µM. The pIC50 (PBLUC_HILL_SLOPE 19.9, PBLUC_R_SQUARED 0.58, read-out: LUCIFERASE INFECTION ASSAY - IC50) is 5.40.
